# From publication PMC7155171, “Probing the Open Global Health Chemical Diversity Library for Multistage-Active Starting Points for Next-Generation Antimalarials” (ACS Infectious Diseases, 2020)
# Read-outs that look alike come from different tables or passages of the source.
# Tests used:
# [1] = tested on: P. falciparum Dd2 (PfLuc) line expressing firefly luciferase, asexual blood stage; assay: microbe, parasite or virus in culture; type: cell-based, Plasmodium falciparum; settings: Plasmodium falciparum
# P. falciparum Dd2 = assay: SYBR green I asexual blood stage proliferation assay (96 h); type: cell-based, Plasmodium falciparum; settings: Plasmodium falciparum, DD2, 11-pt dose response, 96hr
# [2] = DD2, read-out: CDD P. falciparum Luciferase ABS 11-pt Reconfirmation Dose Response (48hr): IC50 (μM), 11-pt dose response, 48hr
# [3] = DD2, 8-pt dose response, 96hr, read-out: CDD P. falciparum Luciferase ABS 8-pt Reconfirmation Dose Response (96hr): IC50
# [4] = DD2, 8-pt dose response, 96hr, read-out: CDD P. falciparum Luciferase ABS 8-pt Reconfirmation Dose Response (96hr): Maximum inhibition (%)
# [5] = DD2, 11-pt dose response, 48hr, read-out: CDD P. falciparum Luciferase ABS 11-pt Reconfirmation Dose Response (48hr): Maximum inhibition (%)
# [6] = DD2, 11-pt dose response, 96hr, read-out: CDD P. falciparum Luciferase ABS 11-pt Reconfirmation Dose Response (96hr): IC50
# [7] = DD2, 11-pt dose response, 96hr, read-out: CDD P. falciparum Luciferase ABS 11-pt Reconfirmation Dose Response (96hr): Maximum inhibition (%)
# [8] = Sybr Green I, read-out: CDD P. falciparum Sybr Green I ABS 11-pt Reconfirmation Dose Response (96hr): IC50
# [9] = Sybr Green I, read-out: CDD P. falciparum Sybr Green I ABS 11-pt Reconfirmation Dose Response (96hr): Maximum inhibition (%)
# [10] = DD2, read-out: P. falciparum Luciferase ABS 11-pt Reconfirmation Dose Response (48hr): IC50, 11-pt dose response, 48hr
# [11] = DD2, 8-pt dose response, 96hr, read-out: P. falciparum Luciferase ABS 8-pt Reconfirmation Dose Response (96hr): IC50
# [12] = DD2, 8-pt dose response, 96hr, read-out: P. falciparum Luciferase ABS 8-pt Reconfirmation Dose Response (96hr): Maximum inhibition (%)
# [13] = DD2, 11-pt dose response, 48hr, read-out: P. falciparum Luciferase ABS 11-pt Reconfirmation Dose Response (48hr): Maximum inhibition (%)
# [14] = DD2, 11-pt dose response, 96hr, read-out: P. falciparum Luciferase ABS 11-pt Reconfirmation Dose Response (96hr): IC50
# [15] = DD2, 11-pt dose response, 96hr, read-out: P. falciparum Luciferase ABS 11-pt Reconfirmation Dose Response (96hr): Maximum inhibition (%)
# [16] = read-out: P. falciparum Sybr Green I ABS 11-pt Reconfirmation Dose Response (96hr): IC50
# [17] = read-out: P. falciparum Sybr Green I ABS 11-pt Reconfirmation Dose Response (96hr): Maximum inhibition (%)
SMILES,"IC50 [1, 2]","IC50 [1, 3]","Emax [1, 4]","Emax [1, 5]","IC50 [1, 6]","Emax [1, 7]",IC50 (P. falciparum Dd2; [8]),Emax (P. falciparum Dd2; [9]),"IC50 [1, 10]","IC50 [1, 11]","Emax [1, 12]","Emax [1, 13]","IC50 [1, 14]","Emax [1, 15]",IC50 (P. falciparum Dd2; [16]),Emax (P. falciparum Dd2; [17])
Cc1cc(C)c(N(CC(O)CNCc2ccccc2)S(C)(=O)=O)c(C)c1 (centres unmarked) [DDD01027603],2.17 µM,0.51 µM,90.1%,75%,0.829 µM,90.9%,4910 nM,81.7%,–,–,–,–,–,–,–,–
Cc1cc(CN2CCC(CNS(=O)(=O)c3ccc(Br)s3)CC2)c(C)o1 [DDD01027665],3.89 µM,0.63 µM,89.4%,82%,1.08 µM,95%,> 12500 nM,32.7%,–,–,–,–,–,–,–,–
COc1ccc(CCC(=O)NCCN2CCC(c3cccs3)CC2)cc1 [DDD01028015],11.4 µM,0.95 µM,85.7%,69.6%,2.24 µM,86.6%,4170 nM,71.9%,–,–,–,–,–,–,–,–
O=C(NCCc1ccccc1)NCCN1CCC(c2cccs2)CC1 [DDD01028018],–,–,–,–,–,–,–,–,5.18 µM,1.18 µM,87.7%,64%,1.42 µM,87.1%,> 4160 nM,69.6%
COc1ccc(NC(=O)Nc2cnc(N3CCN(C)CC3)nc2)cc1Cl [DDD01028129],–,–,–,–,–,–,–,–,> 12.5 µM,1.39 µM,94.1%,14.8%,4.41 µM,57.8%,> 12500 nM,38.2%
c1ccc(C[C@H]2CN(C3CCOCC3)CC[C@H]2OCC2CC2)cc1 [DDD01028772],> 12.5 µM,0.69 µM,87%,70.2%,1.04 µM,91.3%,7170 nM,69.9%,–,–,–,–,–,–,–,–
CN1CCC2(CCCN(c3nccc(C(F)(F)F)n3)C2)CC1 [DDD01028783],> 12.5 µM,0.75 µM,87.2%,60.6%,3.57 µM,84.9%,8820 nM,74%,–,–,–,–,–,–,–,–
CC(C)N1CCC2(CCCN(c3nccc(C(F)(F)F)n3)C2)CC1 [DDD01028790],3.12 µM,0.61 µM,89.3%,69%,1.33 µM,91.1%,9750 nM,76.4%,–,–,–,–,–,–,–,–
Fc1cccc(CN2C[C@@H]3CN(Cc4ccccn4)C[C@@H]3C2)c1 [DDD01029091],1.16 µM,0.62 µM,95.3%,94%,0.354 µM,100%,2340 nM,–,–,–,–,–,–,–,–,–
NCC1[C@H]2CN(Cc3cccc(Cl)c3)C[C@@H]12 (some centres unmarked) [DDD01029240],2.68 µM,0.55 µM,93.8%,85%,1.2 µM,99%,1890 nM,90.7%,–,–,–,–,–,–,–,–
c1ccc(CN2CCCC3(CCN(Cc4cccs4)C3)C2)nc1 (centres unmarked) [DDD01029520],–,–,–,–,–,–,–,–,6.38 µM,1.97 µM,83.5%,51.8%,2.96 µM,86.9%,> 4160 nM,58%
c1ccc(N2CCCC3(CCN(Cc4ccsc4)C3)C2)nc1 (centres unmarked) [DDD01029521],3.75 µM,1.02 µM,83.9%,64.3%,2.51 µM,86.9%,1880 nM,66.8%,–,–,–,–,–,–,–,–
Fc1ccc(CN2CCC3(CC2)CCN(Cc2nccs2)CC3)cc1 [DDD01031337],8.85 µM,0.78 µM,88.8%,69.4%,1.46 µM,87.9%,> 1390 nM,71.7%,–,–,–,–,–,–,–,–
Cc1ccc(CN2CCC3(CC2)CCN(Cc2ccoc2)CC3)cc1 [DDD01031590],2.04 µM,0.24 µM,94.3%,86.7%,0.444 µM,99.4%,2330 nM,–,–,–,–,–,–,–,–,–
Cc1ccc(CN2CCC3(CC2)CCN(Cc2ccco2)CC3)cc1 [DDD01031591],7.27 µM,0.77 µM,–,74.1%,0.938 µM,94.4%,6720 nM,84.1%,–,–,–,–,–,–,–,–
CN1[C@H](Cn2cccn2)C[C@@H]2CN(Cc3cccs3)CC[C@@H]21 [DDD01032287],> 12.5 µM,0.77 µM,80.2%,45.9%,> 1.39 µM,85.9%,> 4160 nM,67.6%,–,–,–,–,–,–,–,–
c1cncc(N2CCCC3(CCN(CCN4CCCC4)CC3)C2)c1 [DDD01032557],–,–,–,–,–,–,–,–,7.21 µM,1.19 µM,–,83.2%,1.41 µM,99.7%,2440 nM,93.7%
CN(C)[C@@H]1CCN(c2ncc(F)cn2)[C@H]1Cc1ccccc1 [DDD01033375],5.55 µM,1.11 µM,86.7%,53.2%,2.25 µM,86.9%,> 4160 nM,74.6%,–,–,–,–,–,–,–,–
CCN1CCC2(CC1)CC(NCc1cccs1)c1ccccc1O2 (centres unmarked) [DDD01034117],2.44 µM,0.39 µM,91.4%,72.4%,0.515 µM,91.9%,3400 nM,78.6%,–,–,–,–,–,–,–,–
CCN1CCC2(CC1)CC(NCc1cccc(C)n1)c1ccccc1O2 (centres unmarked) [DDD01034133],11.7 µM,0.72 µM,–,67.5%,3.23 µM,88.1%,10300 nM,79.5%,–,–,–,–,–,–,–,–
CCN1CCC2(CC1)CC(NCc1ccncc1)c1ccccc1O2 (centres unmarked) [DDD01034171],> 12.5 µM,0.75 µM,87.7%,61.8%,3.05 µM,86%,> 4160 nM,74%,–,–,–,–,–,–,–,–
COc1ccc(N2CCCC3(C2)CN(c2nncs2)CCO3)cc1 (centres unmarked) [DDD01034473],0.758 µM,0.2 µM,95%,–,0.451 µM,97.9%,830 nM,95.3%,–,–,–,–,–,–,–,–
